Laboratory results from paper PMC6009881, “New sulfurated derivatives of cinnamic acids and rosmaricine as inhibitors of STAT3 and NF-κB transcription factors” (Journal of Enzyme Inhibition and Medicinal Chemistry, 2017).
Read-outs that look alike come from different tables or passages of the source.

What was measured:
STAT3-SH2 domain [1] = molecular target: T1, STAT3-SH2 domain (Homo sapiens, UniProt P40763); assay: STAT AlphaScreen-based assay (STAT3); format: binding; conditions: for IC50 / inhibition at 30 µM: AlphaScreen assay; for IC50: read-out: STAT3 IC50 ±SD; for inhibition at 30 µM: read-out: STAT3 % inhibition ± SD at 30 μM
STAT3 = conditions: in some settings; read-out: STAT3 inhibition IC50; cited from earlier work
SH2-domain of STAT1 = molecular target: T2, SH2-domain of STAT1 (Homo sapiens, UniProt P42224); assay: STAT AlphaScreen-based assay (STAT1 selectivity); format: binding; conditions: for inhibition at 30 µM: read-out: STAT1 % inhibition ± SD at 30 μM, 30 μM; for IC50: read-out: STAT1 IC50 ±SD
T2 sequence (P42224 1-750): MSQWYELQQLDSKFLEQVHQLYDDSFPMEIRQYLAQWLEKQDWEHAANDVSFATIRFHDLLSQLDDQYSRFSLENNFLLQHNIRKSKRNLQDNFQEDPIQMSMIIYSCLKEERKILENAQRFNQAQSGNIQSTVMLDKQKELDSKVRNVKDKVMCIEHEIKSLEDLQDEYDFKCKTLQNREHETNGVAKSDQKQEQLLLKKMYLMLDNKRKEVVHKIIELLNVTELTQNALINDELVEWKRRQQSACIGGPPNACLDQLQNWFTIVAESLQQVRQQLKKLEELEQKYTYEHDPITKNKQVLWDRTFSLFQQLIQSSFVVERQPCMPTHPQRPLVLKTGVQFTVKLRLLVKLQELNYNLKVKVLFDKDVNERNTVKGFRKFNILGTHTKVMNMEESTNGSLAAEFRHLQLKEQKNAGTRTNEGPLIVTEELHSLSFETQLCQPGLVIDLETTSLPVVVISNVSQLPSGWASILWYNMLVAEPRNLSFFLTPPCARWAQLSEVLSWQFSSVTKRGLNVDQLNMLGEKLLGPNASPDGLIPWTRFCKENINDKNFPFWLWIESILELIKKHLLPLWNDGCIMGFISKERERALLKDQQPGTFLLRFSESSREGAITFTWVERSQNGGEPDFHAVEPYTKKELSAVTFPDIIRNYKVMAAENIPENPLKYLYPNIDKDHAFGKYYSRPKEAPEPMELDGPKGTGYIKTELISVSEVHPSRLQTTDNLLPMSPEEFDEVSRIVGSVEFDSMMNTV
Description: STAT3 inhibitory activity of the described compounds was tested by the AlphaScreen-based assay to evaluate the potential inhibition of the interaction between STAT3-SH2 domain and pTyr-containing peptides according to the previously reported procedure. For the most interesting compounds, selectivity tests versus STAT1 were performed.
The new sulfurated-drug hybrids, together with their parent compounds have been submitted to the AlphaScreen-based assay, to investigate their ability to bind STAT3 directly, through the evaluation of the inhibition of the binding of SH2-containing proteins to their correspondent phosphopeptides, the physiological ligands. […] Since AlphaScreen is a cell-free assay, not always there is a correspondence between the potency of STAT3 inhibition and cytotoxicity, probably due to not optimal physicochemical properties of the tested compounds, such as solubility and chemical stability in the culture medium and cell permeation.

[2] = tested on: STAT3 reporter activity in HeLa cells; assay: STAT3 luciferase reporter gene assay; format: cell-based; conditions: Homo sapiens, 2 h pretreatment, oncostatin M 10 ng/ml 4 h, read-out: STAT3 reporter assay (HeLa) IC50 ±SD
Description: STAT3 reporter HeLa stable cell lines (Signosis Inc, Santa Clara, CA) were incubated in a 96-well microplate for 24 h. Cells were pretreated with test compounds for 2 h, and 10 ng/ml (w/v) of oncostatin M were applied and incubated for 4 h. Cells were washed with medium not supplemented with phenol red, and Steady-Glo® reagent (Promega, Madison, WI) was applied. After 15 min incubation, the signals were detected by ARVO Light 1420 (PerkinElmer Life Sciences, Waltham, MA). The relative signal intensity was calculated in each well as the ratio for the mean signal of vehicle.

[3] = tested on: NF-κB promoter activity in HCT-116 cells; assay: Luciferase reported NF-κB promoter activity assay; format: cell-based; conditions: Homo sapiens, 2 h pre-treatment, TNF-α 10 ng/ml, NA = not active up to 100 μM, read-out: NF-κB promoter assay (HCT-116) IC50 ±SD
Description: To measure the NF-κB promoter activity, HCT-116 cells were seeded in 100 mm dish and transiently transfected with 6 μg of DNA (NF-κB plasmid, containing luciferase reporter gene[57] with turbofect reagent (Carlo Erba Reagents). After 24 h, cells were seeded in 48-well plates (40.000 cells per well). On the next day, cells were incubated with our compounds for 2 h (pre-treatment) and then TNF-α was added in every well at (10 ng/ml). After 5–6 h, luciferase activity was measured by using Neolite reagent (PerkinElmer Life Sciences, Waltham, MA) according to the manufacturer’s instructions.

HCT-116 cells = assay: MTT assay, cytotoxicity on HCT-116; format: cell-based, human; conditions: for IC50 at 48 h: human, HCT-116 cells; for IC50 at 48 h / IC50: MTT assay, NA = not active up to 100 μM, read-out: Cytotoxicity (HCT-116) IC50 ±SD, 48 h
Description: Following the same protocol used for previous cytotoxicity assays by N. Ferri[55], cells were seeded in 48-well plate (40.000 cells/well) and, after 24 h, they were incubated with different concentrations of our compounds for 48 h.
The determination of the conversion of MTT (3-(4,5-dimethyl-2-thiazolyl)-2,5-diphenyl-2H-tetrazolium bromide) to formazan was determined by using a commercially available kit (Millipore, Billerica, MA), according to the manufacturer’s instructions.

[4] = tested on: lymphocytic leukemia P388; set-up: method as in PMID 8003178; conditions: injected i.p. in mice, 24 h after the tumor implants; data from National Cancer Institute; cited from earlier work
[5] = tested on: human smooth muscle cells (hSMC); assay: Cytotoxicity versus normal human smooth muscle cells; format: cell-based
[6] = tested on: MCF-7 (hormone sensitive breast cancer) cells; assay: Cytotoxicity against MCF-7 cells; format: cell-based; conditions: in comparison to HCT-116
STAT3-SH2 domain [7] = molecular target: T1, STAT3-SH2 domain; set-up: method as in PMID 28097912; conditions: maximum tested concentration 30 μM; read-out: STAT3-SH2 domain binding IC50 (AlphaScreen), previously described hybrids; cited from earlier work
[8] = tested on: different tumoral cell lines; set-up: method as in PMID 18266964, PMID 22212895; conditions: cited from earlier work
[9] = tested on: PC3 subcutaneous xenografts; set-up: method as in PMID 18266964; conditions: in vivo; cited from earlier work

T1 sequence (P40763 whole entry, the tested form may be a part): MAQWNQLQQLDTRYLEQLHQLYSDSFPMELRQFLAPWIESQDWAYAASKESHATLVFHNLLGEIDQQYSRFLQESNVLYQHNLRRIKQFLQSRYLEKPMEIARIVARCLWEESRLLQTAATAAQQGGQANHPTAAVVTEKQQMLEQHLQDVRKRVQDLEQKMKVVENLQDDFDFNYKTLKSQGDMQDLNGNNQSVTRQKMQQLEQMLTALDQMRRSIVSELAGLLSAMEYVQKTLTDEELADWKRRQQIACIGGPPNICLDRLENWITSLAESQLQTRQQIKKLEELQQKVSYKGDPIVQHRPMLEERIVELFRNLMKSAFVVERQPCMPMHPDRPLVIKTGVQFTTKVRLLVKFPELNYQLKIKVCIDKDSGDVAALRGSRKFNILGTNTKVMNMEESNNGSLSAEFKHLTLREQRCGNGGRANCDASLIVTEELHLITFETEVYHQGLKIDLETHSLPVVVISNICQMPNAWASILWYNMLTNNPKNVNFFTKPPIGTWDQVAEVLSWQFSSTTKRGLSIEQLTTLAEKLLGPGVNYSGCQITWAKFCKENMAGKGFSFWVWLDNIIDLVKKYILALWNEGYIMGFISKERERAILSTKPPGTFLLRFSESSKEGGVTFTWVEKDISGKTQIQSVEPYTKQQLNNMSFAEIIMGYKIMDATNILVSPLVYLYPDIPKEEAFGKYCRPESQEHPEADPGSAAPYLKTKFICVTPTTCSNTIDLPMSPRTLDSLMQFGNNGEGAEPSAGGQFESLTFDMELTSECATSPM

Compound | IC50 (STAT3-SH2 domain [1]) | IC50 (STAT3) | inhibition at 30 µM (STAT3-SH2 domain [1]) | inhibition at 30 µM (SH2-domain of STAT1) | IC50 (SH2-domain of STAT1) | IC50 [2] | IC50 [3] | IC50 at 48 h (HCT-116 cells) | melting point | IC50 (HCT-116 cells) | activity against lymphocytic leukemia P388 [4] | fold increase of inhibitory potency on STAT3 (STAT3-SH2 domain [1]; in comparison to rosmaricine) | fold increase of antiproliferative activity (HCT-116 cells; HCT-116, in comparison to rosmaricine) | selectivity index (hSMC versus HCT-116) [5] | IC50 ([5]; Homo sapiens, HSMC) | cytotoxicity against MCF-7 cells [6] | IC50 (STAT3-SH2 domain [7]) | in vitro antiproliferative activity [8] | growth of PC3 in subcutaneous xenografts [9]
O=C(O)/C=C/c1ccc(O)c(O)c1 [Compound 19, caffeic acid, reference compound] | > 30 µM | 70 to 100 µM |  |  |  |  |  |  |  |  |  |  |  |  |  |  |  |  | 
CS(=O)(=O)SCCOC(=O)/C=C/c1ccc(O)c(O)c1 [Compound 21, (E)-2-(methylsulfonylthio)ethyl 3-(3,4-dihydroxyphenyl)acrylate] | 0.8 ± 0.2 µM |  | 100.1 ± 0.1% | 85.7 ± 4.3% | 17 ± 1.2 µM | 60.6 ± 2.8 µM | 128 ± 8.9 µM | 123 ± 17.3 µM | 133.1 to 134.8 °C |  |  |  |  |  |  |  |  |  | 
C=CCSSCCOC(=O)/C=C/c1ccc(O)c(O)c1 [Compound 23, (E)-2-(allyldisulfanyl)ethyl 3-(3,4-dihydroxyphenyl)acrylate] | 5.5 ± 0.2 µM |  | 70 ± 1.7% | 37.7 ± 7.5% | > 30 µM | 94.4 ± 26.1 µM | 163 ± 11.1 µM | 73 ± 8 µM |  |  |  |  |  |  |  |  |  |  | 
O=C(/C=C/c1ccc(O)c(O)c1)Oc1ccc(-c2cc(=S)ss2)cc1 [Compound 24, (E)-4-(3-thioxo-3H-1,2-dithiol-5-yl)phenyl 3-(3,4-dihydroxyphenyl)acrylate] | 13.2 ± 0.9 µM |  | 66.7 ± 0.5% | 21.5 ± 1.8% | > 30 µM | 40 ± 1.5 µM | 40.6 ± 3 µM | 46.7 µM | 199.5 to 201.5 °C | 46.7 ± 4.1 µM |  |  |  |  |  |  |  |  | 
CC(C)c1cc2c(c(O)c1O)C13CCCC(C)(C)C1C(OC3=O)C2N (centres unmarked) [Compound 30, rosmaricine] | 1.9 ± 0.1 µM |  | 99.7% | 91.8% | 10 ± 0.6 µM | 42.4 ± 2.4 µM | 43.4 ± 6.9 µM | 65 µM | 198.2 to 202.5 °C | 65.2 ± 2.3 µM | inactive or endowed with borderline activity |  |  |  |  |  |  |  | 
CC(C)c1cc2c(c(O)c1O)C13CCCC(C)(C)C1C(OC3=O)C2NC(=O)CCCCSS(C)(=O)=O (centres unmarked) [Compound 31, N-[5-(methylsulfonyl)thiopentanoyl]rosmaricine] | 0.2 µM |  | 100.1 ± 0.1% | 99.9 ± 0.3% | 2.8 ± 0.1 µM | > 100 µM | 53.3 ± 10.9 µM | 73.8 ± 0.9 µM | 121.1 to 124.2 °C (dec.) |  |  | 10 fold |  |  |  |  |  |  | 
C=CCSSCCC(=O)NC1c2cc(C(C)C)c(O)c(O)c2C23CCCC(C)(C)C2C1OC3=O (centres unmarked) [Compound 32, N-[3-(allyldisulfanyl)propanoyl]rosmaricine] | 2.3 ± 0.4 µM |  | 99.5% | 23.9 ± 0.4% | > 30 µM | 37 ± 0.8 µM | 13 ± 0.7 µM | 3.5 ± 2.8 µM | 206.9 to 209.2 °C |  |  |  | 19 fold | 6 | 21.2 µM | confirmed, even at lower level |  |  | 
CC(C)c1cc2c(c(O)c1O)C13CCCC(C)(C)C1C(OC3=O)C2NC(=O)c1ccc(-c2cssc2=S)cc1 (centres unmarked) [Compound 33, N-[4-(3-thioxo-3H-1,2-dithiol-4-yl)benzoyl]rosmaricine] | 2.9 ± 0.2 µM |  | 94.5 ± 0.4% | 58.8 ± 5.9% | 19.7 ± 4 µM | > 100 µM | 73 ± 13.2 µM | 65.4 ± 3.9 µM | 243.2 to 249.7 °C |  |  |  |  |  |  |  |  |  | 
CCCC(CCC)C(=O)OCCSS(C)(=O)=O [a, 2-((methylsulfonyl)thio)ethyl 2-propylpentanoate] |  |  |  |  |  |  |  |  |  |  |  |  |  |  |  |  | 0.7 µM | good antiproliferative activity in micromolar concentrations | inhibited the growth of PC3 in subcutaneous xenografts
